Laboratory results taken from article PMC5052628, “Fragment-based de novo design of a cystathionine γ-lyase selective inhibitor blocking hydrogen sulfide production” (Scientific Reports, 2016).

What was measured:
[1] = biological target: T1, cystathionine-γ-lyase (CSE) (Homo sapiens, UniProt P32929); test: absorbance spectroscopy; assay type: binding; conditions: covalently attached to Lys212
T1 construct: gene CTH; N-terminal GST fusion (pGEX-4T3), expressed in E. coli BL21(DE3) Codon Plus; eluted with reduced GSH, no tag cleavage described
T1 sequence (P32929 whole entry, the tested form may be a part): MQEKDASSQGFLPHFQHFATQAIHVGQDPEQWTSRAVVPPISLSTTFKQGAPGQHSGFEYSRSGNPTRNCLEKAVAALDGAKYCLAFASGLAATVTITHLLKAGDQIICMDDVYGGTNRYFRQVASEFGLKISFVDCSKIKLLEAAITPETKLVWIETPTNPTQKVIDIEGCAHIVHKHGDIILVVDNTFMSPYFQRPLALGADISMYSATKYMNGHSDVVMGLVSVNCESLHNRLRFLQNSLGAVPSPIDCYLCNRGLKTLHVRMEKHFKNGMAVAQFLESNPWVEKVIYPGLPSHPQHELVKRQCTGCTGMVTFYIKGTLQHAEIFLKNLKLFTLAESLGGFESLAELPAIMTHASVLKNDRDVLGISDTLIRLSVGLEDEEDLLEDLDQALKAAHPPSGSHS

[2] = biological target: T2, cystathionine-ß-synthase (CBS) (Homo sapiens, UniProt P35520); test: absorbance spectroscopy; assay type: binding; conditions: bound at Lys119
T2 construct: N-terminal GST fusion (pGEX-Kg), expressed in E. coli BL21(DE3) Codon Plus; eluted with reduced GSH, no tag cleavage described; homotetramer
T2 sequence (P35520 1-551): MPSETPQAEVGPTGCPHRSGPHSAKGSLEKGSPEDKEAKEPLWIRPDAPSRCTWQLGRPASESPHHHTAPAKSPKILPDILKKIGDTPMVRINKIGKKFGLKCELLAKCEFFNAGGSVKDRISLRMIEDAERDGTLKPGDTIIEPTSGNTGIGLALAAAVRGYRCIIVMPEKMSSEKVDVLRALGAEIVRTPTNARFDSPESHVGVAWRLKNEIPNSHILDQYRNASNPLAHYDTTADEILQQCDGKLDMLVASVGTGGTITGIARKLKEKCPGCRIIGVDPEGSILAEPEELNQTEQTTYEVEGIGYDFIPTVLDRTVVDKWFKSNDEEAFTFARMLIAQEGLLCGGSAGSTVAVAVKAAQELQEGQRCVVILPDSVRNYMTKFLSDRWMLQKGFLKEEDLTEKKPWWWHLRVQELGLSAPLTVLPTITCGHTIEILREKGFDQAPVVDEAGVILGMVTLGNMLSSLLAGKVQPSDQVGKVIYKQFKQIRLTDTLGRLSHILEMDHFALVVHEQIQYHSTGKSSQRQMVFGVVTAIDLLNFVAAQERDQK

[3] = biological target: T1, cystathionine-γ-lyase (CSE); test: methylene blue H2S assay, concentration-response; assay type: biochemical
[4] = biological target: T1, cystathionine-γ-lyase (CSE); test: methylene blue H2S assay, secondary plot of Lineweaver-Burk slopes; assay type: biochemical

SMILES: Cc1ncc(COP(=O)(O)O)c(C=O)c1O [PLP]
- absorbance spectroscopy [1]: enzymes are correctly folded and bind the respective prosthetic groups
- absorbance spectroscopy [2]: enzymes are correctly folded and bind the respective prosthetic groups

SMILES: C#CCNC(=O)[C@@H]1CSC(=O)N1 [2a, compound 2a]
- IC50 [3]: 6.3 ± 1 µM
- Ki [4]: 13 µM

SMILES: C#CCC(N)C(=O)O (centres unmarked) [PAG]
- IC50 [3]: 42.2 ± 1.1 µM
